“Also recorded” adds a separate entry of the source. Like-named read-outs stand apart in the source and are kept apart here. Where a SMILES comes first, the peptide text is derived from it.

In test [1] the test system is kappa-opioid receptor (KOR). The settings on record: literature reports; cited from earlier work.
For a further test, the target named is κ opioid receptors (KOR). It counts as binding. The settings on record: for Ki: [3H]diprenorphine. How it is done: (§1) Opioid receptor affinities were determined for the cyclic tetrapeptides using Chinese hamster ovary cells stably expressing κ, μ and δ opioid receptors, and their efficacies at κ opioid receptors were determined in the adenylyl cyclase assay as previously described (Arttamangkul, et al., J. Med. Chem. 1997, 40, 1211-1218; Soderstrom, et al., Eur. J. Pharmacol. 1997, 338, 191-197). [^3H]Diprenorphine, [^3H][D-Ala^2,NMePhe^4,glyol]enkephalin and [^3H]cyclo[D-Pen^2,D-Pen^5]enkephalin were used as the radioligands in the binding assays for κ, μ and δ opioid receptors, respectively. In the adenylyl cyclase assay, the efficacies were determined by measuring the inhibition of adenylyl cyclase by 10 μM of the peptides relative to dynorphin A-(1-13) amide (100%).
(§2) The study was done using [^3H]diprenorphine, [^3][D-Ala^2,NMePhe^4,glyol]enkephalin and [^3H]cyclo[D-Pen^2,D-Pen^5]enkephalin binding to CHO membranes expressing KOR, MOR and DOR, respectively.

In another test the target is T1, δ opioid receptors (DOR) (Mus musculus, UniProt P32300).
T1 construct: expressed in transfected cells
T1 sequence (P32300 whole entry): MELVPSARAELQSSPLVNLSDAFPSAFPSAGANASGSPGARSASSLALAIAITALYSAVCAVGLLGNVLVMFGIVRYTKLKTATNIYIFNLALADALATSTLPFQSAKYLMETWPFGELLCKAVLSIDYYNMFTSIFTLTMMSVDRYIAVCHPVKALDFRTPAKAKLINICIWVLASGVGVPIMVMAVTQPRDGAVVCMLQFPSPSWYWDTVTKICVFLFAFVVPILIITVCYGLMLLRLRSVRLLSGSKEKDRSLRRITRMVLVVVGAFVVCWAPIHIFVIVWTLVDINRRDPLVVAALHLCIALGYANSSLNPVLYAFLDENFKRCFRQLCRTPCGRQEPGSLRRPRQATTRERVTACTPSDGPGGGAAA
The experiment in a line: Radioligand binding, δ opioid receptor, CHO cells ([3H]cyclo[D-Pen2,D-Pen5]enkephalin). The protocol: as §1, §2

The target of the next test is T2, μ opioid receptors (MOR) (Rattus norvegicus, UniProt P33535).
T2 construct: expressed in transfected cells
T2 sequence (P33535 whole entry): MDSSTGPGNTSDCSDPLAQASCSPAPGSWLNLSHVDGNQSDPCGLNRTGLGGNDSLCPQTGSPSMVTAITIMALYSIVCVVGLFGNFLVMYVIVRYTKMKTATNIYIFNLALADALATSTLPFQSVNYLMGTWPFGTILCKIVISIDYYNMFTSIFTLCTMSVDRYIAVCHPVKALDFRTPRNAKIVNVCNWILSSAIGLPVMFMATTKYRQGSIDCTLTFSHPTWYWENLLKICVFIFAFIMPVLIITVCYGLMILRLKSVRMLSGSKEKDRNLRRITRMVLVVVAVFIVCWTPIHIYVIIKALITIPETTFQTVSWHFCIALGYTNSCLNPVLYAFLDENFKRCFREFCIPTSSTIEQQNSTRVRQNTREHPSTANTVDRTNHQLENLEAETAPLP
The experiment in a line: Radioligand binding, μ opioid receptor, CHO cells ([3H][D-Ala2,NMePhe4,glyol]enkephalin). How it is done: as §1, §2

The test system of test [2] is C57B1/6J mice. The experiment in a line: 55° C. warm-water tail-withdrawal assay, agonist (antinociceptive) activity. Type of test: in vivo, mouse. The settings on record: for agonist activity in the 55° C. warm water tail withdrawal assay: i.c.v. administration; for pattern of opioid activity in vivo: tail-withdrawal assay. The protocol:
(§3) An antinociceptive (analgesic) assay was performed to test the KOR agonist activity of cyclic tetrapeptides cyclo[Trp-Phe-D-Pro-Phe] […] After determining baseline tail-withdrawal latencies, mice received a single intracerebroventricular (i.c.v.) dose of vehicle (artificial cerebrospinal fluid, 146 mM NaCl, 2.7 mM KCl, 1.2 mM, CaCl2, 1.0 mM MgCl2) or a dose of test compound i.c.v. and the tail-withdrawal latency was again measured. For i.c.v. injections, each mouse was lightly anesthetized with isoflurane, an incision was made in the scalp, and the injection was made 2 mm lateral and 2 mm caudal to bregma at a depth of 3 mm directly into the lateral ventricle, as detailed previously (McLaughlin et al., 1999). The volume of these injections was 5 μl, using a 10-μl Hamilton microliter syringe. Reference agonists and antagonists were administered either subcutaneously (s.c.) or interperitoneally (i.p.) in 0.9% saline at the doses and times indicated in the figure legends (negative numbers indicate time prior to tail-withdrawal assay).

For a further test, the target named is T3, κ opioid receptors (Rattus norvegicus, UniProt P34975).
T3 construct: expressed in transfected cells
T3 sequence (P34975 whole entry): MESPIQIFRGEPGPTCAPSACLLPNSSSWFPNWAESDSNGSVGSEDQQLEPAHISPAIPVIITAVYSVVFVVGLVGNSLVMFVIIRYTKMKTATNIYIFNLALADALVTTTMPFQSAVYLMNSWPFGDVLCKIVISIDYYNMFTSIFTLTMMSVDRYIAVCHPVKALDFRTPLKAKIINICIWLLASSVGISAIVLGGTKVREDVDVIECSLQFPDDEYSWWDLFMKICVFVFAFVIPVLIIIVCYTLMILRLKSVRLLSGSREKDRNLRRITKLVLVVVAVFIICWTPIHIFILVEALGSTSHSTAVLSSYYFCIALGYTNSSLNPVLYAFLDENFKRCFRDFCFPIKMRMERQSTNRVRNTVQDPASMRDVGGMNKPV
The experiment in a line: Adenylyl cyclase assay (efficacy at κ opioid receptors). Type of test: cell-based. The settings on record: 10 μM peptide; relative to dynorphin A-(1-13) amide (100%). How it is done:
as §1

The next test addresses T4, KOR in mouse brain (Mus musculus, UniProt P33534).
T4 construct: from tissue; host or cells: mouse brain
The test is described as follows: Affinity for KOR in mouse brain. It counts as binding.

The next test has as its target T5, KOR (Mus musculus, UniProt P33534).
T5 construct: from tissue; host or cells: living C57Bl/6J mice (in vivo)
The experiment in a line: 55° C. warm-water tail-withdrawal assay, antagonism of the KOR selective agonist U50,488. It counts as in vivo. The settings on record: for antagonism of the KOR selective agonist U50,488: tested 2-2.5 hours after peptide administration, i.c.v.; for duration of KOR antagonist activity: mice, tail-withdrawal assay. How it is done: as §3
The ability of the cyclic tetrapeptides to function as KOR antagonists were studied by assessing the ability to antagonize the KOR selective agonist U50,488. […] Briefly, the antagonistic activity was tested 2-2.5 hours after peptide administration.
The duration of KOR antagonism of the cyclic tetrapeptides was studied.

The target in another test is T6, MOR (Mus musculus, UniProt P42866).
T6 construct: from tissue; host or cells: living C57Bl/6J mice (in vivo)
T6 sequence (P42866 whole entry): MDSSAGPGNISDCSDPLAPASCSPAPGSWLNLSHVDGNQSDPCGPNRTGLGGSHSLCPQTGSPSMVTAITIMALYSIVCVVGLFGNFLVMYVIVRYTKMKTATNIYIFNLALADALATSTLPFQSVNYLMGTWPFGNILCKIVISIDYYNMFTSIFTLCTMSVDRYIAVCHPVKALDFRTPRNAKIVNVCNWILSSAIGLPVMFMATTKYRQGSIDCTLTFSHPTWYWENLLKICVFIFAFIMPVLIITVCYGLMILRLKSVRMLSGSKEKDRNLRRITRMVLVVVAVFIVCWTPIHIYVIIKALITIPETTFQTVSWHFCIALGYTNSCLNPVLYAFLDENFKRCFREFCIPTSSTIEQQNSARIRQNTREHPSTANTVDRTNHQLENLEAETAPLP
The test is described as follows: 55° C. warm-water tail-withdrawal assay, antagonism of the MOR selective agonist morphine. The settings on record: mice. Type of test: in vivo. The protocol: as §3
(§4) The ability of JVA-2802 to selectively antagonize an opioid receptor was studied. Briefly, the antagonistic activity of JVA-2802 was studied for MOR, DOR, and KOR activity by the ability to antagonize the MOR selective agonist morphine, the DOR selective agonist SNC-80, and the KOR selective agonist U50,488.

Test [3] deals with C57B1/6J mice. The test is described as follows: Stress-induced reinstatement of cocaine conditioned place preference. The settings on record: 3 nmol i.c.v. 40 minutes prior to forced swim stress. Type of test: in vivo, mouse.
Protocol: The establishment of cocaine conditioned place preference (CPP), extinction and stress-induced reinstatement of cocaine CPP were preformed in C57B1/6J mice as previously described (Carey, A. N.; Borozny, K.; Aldrich, J. V.; McLaughlin, J. P. Reinstatement of cocaine place-conditioning prevented by the peptide kappa-opioid receptor antagonist arodyn. Eur. J. Pharmacol. 2007, 569, 84-89). […] Place conditioning subsequently began immediately following cocaine administration (10 mg/kg s.c), whereupon mice were consistently confined for 30 min in the appropriate compartment in the CPP apparatus. Conditioning with assay vehicle (0.9% saline) followed 4 hours later in a similar manner, but paired to the opposite chamber. This conditioning cycle was repeated once on each of four days. On the fifth day, mice were again allowed to freely move through the apparatus. […]
One group of animals was then subjected to a 2-day forced swim stress protocol (with a single long swim (15 minutes) on day 1, and a series of four 6-minutes trials on day 2) to produce reinstatement of cocaine CPP. […] One hour after the final exposure to forced swim stress, the place preference responses of the mice were determined as described above to determine possible reinstatement of cocaine CPP (FIG. 6, middle panel). […]
In another test the target is T7, DOR (Mus musculus, UniProt P32300).
T7 construct: from tissue; host or cells: living C57Bl/6J mice (in vivo)
T7 sequence (P32300 whole entry): as the sequence (P32300 whole entry) above
The test is described as follows: 55° C. warm-water tail-withdrawal assay, antagonism of the DOR selective agonist SNC-80. It counts as in vivo. The settings on record: mice. How it is done: as §3, §4

Setting [4] is: CHO membranes expressing KOR, read-out: KOR Ki.
Setting [5] is: CHO membranes expressing DOR, read-out: DOR Ki.
Where [6] appears, read: CHO membranes expressing MOR, read-out: MOR Ki.
[7] abbreviates: CHO cells stably expressing κ receptors, (n) in brackets, read-out: Ki (nM ± SEM) κ.
The mark [8] stands for this setting: CHO cells stably expressing δ receptors, (n) in brackets, read-out: Ki (nM ± SEM) δ.
[9] abbreviates: CHO cells stably expressing μ receptors, (n) in brackets, read-out: Ki (nM ± SEM) μ.

T5 sequence (P33534 whole entry): as the sequence (P34975 whole entry) above, with E11D, A17S, P51S, V308A counted along it
T4 sequence (P33534 whole entry): as the sequence (P34975 whole entry) above, with E11D, A17S, P51S, V308A counted along it

For `CC(C)[C@@H](CN1CC[C@@](C)(c2cccc(O)c2)[C@@H](C)C1)NC(=O)[C@H]1Cc2ccc(O)cc2CN1` [JDTic], the “stress-induced reinstatement of cocaine-seeking behavior” value in test [1] is on record as “block stress-induced reinstatement”.
`C[C@@H]1C(=O)N[C@@H](Cc2ccccc2)C(=O)N[C@H](Cc2c[nH]c3ccccc23)C(=O)N[C@@H](Cc2ccccc2)C(=O)N1C` [JVA 3001] (HELM PEPTIDE1{F.[C[C@H](C(=O)[*:2])N(C)[*:1]].F.[dW]}$PEPTIDE1,PEPTIDE1,1:R1-4:R2$$$V2.0): the figures for the inhibition constant (Ki) at κ opioid receptors (KOR) (setting [4]), at δ opioid receptors (DOR) (setting [5]) and at μ opioid receptors (MOR) (setting [6]) were 68.9 nM, 5690 nM and 58.1 nM, respectively.
As to `C[C@H]1NC(=O)[C@H](Cc2ccccc2)NC(=O)[C@H]2CCCN2C(=O)[C@H](Cc2ccccc2)NC1=O` [JVA 3002], the Ki at κ opioid receptors (KOR) (setting [4]) came out at 1250 nM; on δ opioid receptors (DOR) (setting [5]), 11000 nM; at μ opioid receptors (MOR) (setting [6]), 774 nM.
On the same counts, the results for `C[C@@H]1NC(=O)[C@H]2CCCN2C(=O)[C@H](Cc2ccccc2)NC(=O)[C@@H](Cc2c[nH]c3ccccc23)NC1=O` [JVA 3004] (HELM PEPTIDE1{A.[dW].F.[dP]}$PEPTIDE1,PEPTIDE1,1:R1-4:R2$$$V2.0) are 169 nM, 18000 nM and 186 nM.
Consider `O=C1N[C@@H](Cc2ccccc2)C(=O)N2CCC[C@@H]2C(=O)N[C@@H](Cc2ccccc2)C(=O)N[C@H]1Cc1c[nH]c2ccccc12` [JVA-2801, cyclo[Trp-Phe-D-Pro-Phe]] (HELM PEPTIDE1{F.W.F.[dP]}$PEPTIDE1,PEPTIDE1,1:R1-4:R2$$$V2.0), for which, in the test on C57B1/6J mice [2], the “agonist activity in the 55° C. warm water tail withdrawal assay” value is on record as “can function as agonists; also recorded: robust agonist activity”. Further, the “reversal of agonist activity by the KOR selective antagonist nor-BNI” value in the test with C57B1/6J mice [2] (i.c.v. peptide) is recorded as “partially reversed”. In addition, the “reversal of agonist activity by the MOR selective antagonist β-FNA” value in the test with C57B1/6J mice [2] (i.c.v. peptide) is given as “completely reversed”. Further, the “Cyclase screen (% control)” value at κ opioid receptors was 119%. Moreover, the inhibitory constant (Ki) on KOR in mouse brain is about 21 nM; on κ opioid receptors (KOR) (setting [7]), 35.4 ± 3.6 nM; on δ opioid receptors (DOR) (setting [8]), 4150 ± 3020 nM; on μ opioid receptors (MOR) (setting [9]) it was 619 ± 87 nM. For the same compound, the “antagonism of the KOR selective agonist U50,488” value at KOR is recorded as “dose-dependent antagonism”.
With `O=C1N[C@H](Cc2c[nH]c3ccccc23)C(=O)N[C@@H](Cc2ccccc2)C(=O)N2CCC[C@@H]2C(=O)N[C@H]1Cc1ccccc1` [JVA-2802, cyclo[D-Trp-Phe-D-Pro-Phe]] (HELM PEPTIDE1{F.[dP].F.[dW]}$PEPTIDE1,PEPTIDE1,1:R1-4:R2$$$V2.0), in the test with C57B1/6J mice [2], the “agonist activity in the 55° C. warm water tail withdrawal assay” value is recorded as “did not show any agonist activity; also recorded: did not exhibit any agonist activity”. The “Cyclase screen (% control)” value on κ opioid receptors is 127%. In addition, on KOR, the “duration of KOR antagonist activity” value is “less than a day”. Further, at KOR, the “antagonism of the KOR selective agonist U50,488” value was “dose-dependent antagonism”. The “antagonism of the MOR selective agonist morphine” value at MOR is recorded as “does not antagonize”. The “stress-induced reinstatement of cocaine conditioned place preference” value in the test on C57B1/6J mice [3] is “blocks stress-induced reinstatement”. Besides, at DOR, the “antagonism of the DOR selective agonist SNC-80” value was “does not antagonize”. The inhibition constant Ki on κ opioid receptors (KOR) (setting [7]) turned out to be 30.6 ± 3.4 nM; at δ opioid receptors (DOR) (setting [8]) it was 2910 ± 1350 nM; at μ opioid receptors (MOR) (setting [9]) it was 259 ± 29 nM.
`C[C@@H]1NC(=O)[C@H](Cc2c[nH]c3ccccc23)NC(=O)[C@H](Cc2ccccc2)NC(=O)[C@H]2CCCN2C1=O` [JVA-2803, cyclo[Trp-Ala-D-Pro-Phe]] (HELM PEPTIDE1{A.[dP].F.W}$PEPTIDE1,PEPTIDE1,1:R1-4:R2$$$V2.0): the “agonist activity in the 55° C. warm water tail withdrawal assay” value in the test on C57B1/6J mice [2] is on record as “can function as agonists; also recorded: more potent than JVA-2801”. Also, the “pattern of opioid activity in vivo” value with C57B1/6J mice [2] is “exhibit both agonist activity and KOR antagonist activity”. The “Cyclase screen (% control)” value at κ opioid receptors stood at 122%. On KOR, the “duration of KOR antagonist activity” value is “less than a day”. Also, the “antagonism of the KOR selective agonist U50,488” value on KOR is on record as “more potent than JVA-2801”; at KOR (listed as 2803), “exhibits KOR antagonist activity”. Besides, the values for the inhibitory constant (Ki) on κ opioid receptors (KOR) (setting [7]), at δ opioid receptors (DOR) (setting [8]) and on μ opioid receptors (MOR) (setting [9]) were 8.03 ± 1.67 nM, 8680 ± 1270 nM and 32.1 ± 3.9 nM, respectively. In addition, the “fold higher KOR affinity than the parent peptide” value with κ opioid receptors (KOR) (relative to parent (Phe) peptide / CJ-15,208) was 4 fold. The “fold higher MOR affinity than JVA-2801” value at μ opioid receptors (MOR) (relative to JVA-2801) was found to be 19 fold.
On to `C[C@@H]1NC(=O)[C@@H](Cc2c[nH]c3ccccc23)NC(=O)[C@H](Cc2ccccc2)NC(=O)[C@H]2CCCN2C1=O` [JVA-3003, cyclo[D-Trp-Ala-D-Pro-Phe]] (HELM PEPTIDE1{A.[dP].F.[dW]}$PEPTIDE1,PEPTIDE1,1:R1-4:R2$$$V2.0), for which the “agonist activity in the 55° C. warm water tail withdrawal assay” value in the test on C57B1/6J mice [2] is given as “can function as an agonist; also recorded: robust agonist activity”. In addition, the “pattern of opioid activity in vivo” value in the test on C57B1/6J mice [2] is reported as “exhibits a pattern similar to the L-Trp peptides”. Further, on κ opioid receptors, the “Cyclase screen (% control)” value is given as 75%. Besides, the “duration of KOR antagonist activity” value on KOR is given as “less than a day”. Further, the “antagonism of the KOR selective agonist U50,488” value on KOR is on record as “exhibits KOR antagonist activity”. Moreover, the Ki on κ opioid receptors (KOR) (setting [7]) stood at 3.15 ± 0.41 nM; on κ opioid receptors (KOR) (setting [4]) it was 2.81 nM; on δ opioid receptors (DOR) (setting [8]) it was 8330 ± 1220 nM; at δ opioid receptors (DOR) (setting [5]), 833 nM; on μ opioid receptors (MOR) (setting [6]) it was 27.3 nM.

The record behind these values is US8809278B2, “Cyclic tetrapeptides” (University of Kansas, priority 2008, dated 2014).
